Laboratory results from patent US20210393540A1, “NANOPARTICLE-ENCAPSULATED CANNABINOIDS AND METHODS FOR MAKING AND USING SAME” (NuRevelation, LLC, priority 2020, published 2021).

Assay: Stability of CBD after encapsulation into nanoparticles, by NMR spectra
Format: physicochemical
Conditions: NMR spectrum of CBD after encapsulation into nanoparticles (bottom) relative to non-encapsulated CBD sample (top), FIG. 3
Description: In some aspects, the cannabinoid in the dispersion can have a purity of at least 90%. In a further aspect, the purity of the cannabinoid in the dispersion ranges from 90-100%. In a still further aspect, the purity of the cannabinoid in the dispersion ranges from 92-97%. In general, the inventors have discovered that the encapsulation process described herein can be improved with the use of a pure cannabinoid starting material (e.g., from 92-97% pure). Similarly, the nanoparticle encapsulated cannabinoid products can advantageously maintain the purity of the cannabinoid over extended periods of time. In some aspects, the purity of the cannabinoid starting material can be maintained once encapsulated for a period of twelve months or longer, e.g., 18 months or longer, or even 24 months or longer. The stable shelf life of the cannabinoid nanoparticles is an advantage over many existing methods for delivering cannabinoid products. In some aspects, the stability of the cannabinoid can be measured using NMR, e.g., by comparing a pre-encapsulated cannabinoid to a cannabinoid extracted from a nanoparticle prepared by a disclosed method.

In the case of `C=C(C)[C@@H]1CCC(C)=C[C@H]1c1c(O)cc(CCCCC)cc1O` [CBD, cannabidiol], the “stability of CBD after encapsulation” value is reported as “remains intact”.
